Measured values: US12448399B2, “Cereblon-based KRAS degrading PROTACs and uses related thereto” (Arvinas Operations, Inc., priority 2023, dated 2025)

Target: T1, KRas-G12D (Homo sapiens, UniProt P01116, G12D)
T1 construct: insert the HiBiT tag onto the N-terminus of one or more of the endogenous KRas alleles; host or cells: AsPC-1 HiBiT-KRasG12D knock-in clone (one tagged allele, two untagged KRasG12D alleles)
Test: HiBiT Degradation Assay (G12D), AsPC-1 HiBiT-KRasG12D cells, 24 hr
Type: cell-based
Conditions: for DC50: AsPC-1 cells; for Dmax: ASPC1, AsPC-1 cells, maximum degradation observed
Method: AsPC-1 (CRL-1682) cells were purchased from ATCC and are homozygous for the G12D mutation in KRas. AsPC-1 cells were cultured in GIBCO RPMI-1640 (ThermoFisher Scientific, catalog #61870-036, with Glutamax, no HEPES, no Na Pyruvate) supplemented with 10% FBS (ThermoFisher Scientific, catalog #2060357) and 1× Penicillin-Streptomycin (ThermoFisher Scientific, catalog #15140122, 10000 U/ml, 100×). For degradation assays, 384 well plates were used. Alamar blue was purchased from ThermoFisher Scientific (A50101) and used according to manufacturer instructions. The Nano-Glo® HiBiT Lytic Detection System and Nano-Glo® HiBiT Blotting System were purchased from Promega (#N3050 and #N2410) and used according to manufacturer instructions.
To create the AsPC-1 HiBiT-KRasG12D cell line, CRISPR-Cas9 was used to insert the HiBiT tag onto the N-terminus of one or more of the endogenous KRas alleles. See Schwinn, M. K. et al. (2018) CRISPR-mediated tagging of endogenous proteins with a luminescent peptide, ACS Chem. Biol. 13(2), 467-474. After knock-in of the tag, individual clones were isolated by single cell dilution and screened for HiBiT insertion by PCR. A clone was identified that contained the desired HiBiT-KRasG12D sequence at one allele while the remaining two KRasG12D alleles were untagged. This clone was used in further studies.
AsPC-1 HiBiT-KRasG12D cells were plated at 9000 or 15,000 cells/well in a 384 well plate (Corning #3770). Compounds of the present disclosure and positive controls were diluted in the appropriate cell media and applied to the plated cells resulting in a final concentration titration of 10 μM to […] in 0.5% DMSO. Gambogic acid was used as a positive control for cytotoxicity and titrated from 10 μM to 78 nM. All assays were performed in triplicate. Cells were treated with compounds for 24 hr at 37° C. in an incubator containing 5% CO2. Following treatment, alamar blue was used to determine if any compounds led to a loss in cell viability after 24 hr. The 10× alamar blue reagent was added to a final concentration of 1× as recommended by the manufacturer and cells were returned to the incubator for 4 hr. Plates were then allowed to equilibrate to RT and fluorescence was measured using a Perkin-Elmer EnVision. After completion of the fluorescence read, the liquid from each well was removed and the cells were washed with PBS. The Nano-Glo® HiBiT detection reagent was prepared according to the manufacturer's instructions and added to each well after the PBS wash was removed. Following incubation at room temperature for 45 min, the luminescence was read using the ultra-sensitive luminescence aperture on the Envision instrument.
Fluorescence values from the alamar blue treatment were normalized to the DMSO-only control for each compound titration. HiBiT luminescence was normalized to the DMSO-only control and the fractional HiBiT signal was plotted versus the log of the PROTAC concentration and fit to a 4-parameter dose-response model to obtain the concentration of the compound that leads to half maximal degradation (DC50) as well as the maximum degradation observed (Dmax, conventionally expressed as a percentage of control).

T1 sequence (P01116 1-188 isoform P01116-2 G12D): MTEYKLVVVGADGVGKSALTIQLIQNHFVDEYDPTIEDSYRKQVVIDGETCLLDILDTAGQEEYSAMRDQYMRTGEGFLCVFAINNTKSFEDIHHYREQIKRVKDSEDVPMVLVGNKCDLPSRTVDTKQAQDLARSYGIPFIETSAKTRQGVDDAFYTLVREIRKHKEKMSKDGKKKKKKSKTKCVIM

Row | DC50 [µM] | SMILES | Dmax [%]
1 | 0.1 to 5.25 | CCc1cccc2cc(O)cc(-c3ncc4c(N5CC6CCC(C5)N6)nc(OCCN5CCC(CN6CC7(C6)CN(c6ccc8c(c6)C(=O)N(C6CCC(=O)NC6=O)C8=O)C7)CC5)nc4c3F)c12 (centres unmarked) [Compound 1] | 
2 | 0.25 to 1 | CCc1cccc2cc(O)cc(-c3ncc4c(N5CC6CCC(C5)N6)nc(OCCN5CCC(CN6CCC7(CC6)CN(c6cccc8c6CN(C6CCC(=O)NC6=O)C8=O)C7)CC5)nc4c3F)c12 (centres unmarked) [Compound 3] | 
3 | > 1 | CCc1cccc2cc(O)cc(-c3ncc4c(N5CC6CCC(C5)N6)nc(OCCN5CCN(CCN(C)[C@H]6C[C@H](Oc7ccc8c(c7)C(=O)N(C7CCC(=O)NC7=O)C8=O)C6)CC5)nc4c3F)c12 (some centres unmarked) [Compound 4] | 
4 | > 1 | CCc1cccc2cc(O)cc(-c3ncc4c(N5CC6CCC(C5)N6)nc(OCCN5CCN(c6cc(N7CCN(c8ccc9c(c8)C(=O)N(C8CCC(=O)NC8=O)C9=O)CC7)ncn6)CC5)nc4c3F)c12 (centres unmarked) [Compound 5] | 
5 | > 1 | CCc1cccc2cc(O)cc(-c3ncc4c(N5CC6CCC(C5)N6)nc(OCCN5CCN(CC6CCN(C(=O)c7ccc(OC)c(N8CCC(=O)NC8=O)c7)CC6)CC5)nc4c3F)c12 [Compound 6] | 
6 | > 1 | CCc1cccc2cc(O)cc(-c3ncc4c(N5CC6CCC(C5)N6)nc(OCCN5CCN(c6cc(OC)c7c(c6)C(=O)N(C6CCC(=O)NC6=O)C7=O)CC5)nc4c3F)c12 (centres unmarked) [Compound 7] | 
7 | 0.25 to 1 | CCc1cccc2cc(O)cc(-c3ncc4c(N5CC6CCC(C5)N6)nc(OCCN5CCC(CN6CCC(Oc7ccc8c(c7)C(=O)N(C7CCC(=O)NC7=O)C8=O)CC6)CC5)nc4c3F)c12 (centres unmarked) [Compound 8] | 
8 | 0.25 to 1 | CCc1cccc2cc(O)cc(-c3ncc4c(N5CC6CCC(C5)N6)nc(OCCN5CCC(CN6CCN(c7cccc8c7CN(C7CCC(=O)NC7=O)C8=O)CC6)CC5)nc4c3F)c12 (centres unmarked) [Compound 9] | 
9 | 0.25 to 1 | CCc1cccc2cc(O)cc(-c3ncc4c(N5CC6CCC(C5)N6)nc(OCCN5CCC(CCCN6CCN(c7ccc8c(c7)C(=O)N(C7CCC(=O)NC7=O)C8=O)CC6)CC5)nc4c3F)c12 (centres unmarked) [Compound 10] | 
10 | 0.25 to 1 | CCc1cccc2cc(O)cc(-c3ncc4c(N5CC6CCC(C5)N6)nc(OCCN5CCC(CN(C)[C@H]6C[C@H](Oc7ccc8c(c7)C(=O)N(C7CCC(=O)NC7=O)C8=O)C6)CC5)nc4c3F)c12 (some centres unmarked) [Compound 11] | 
11 | > 1 | CCc1cccc2cc(O)cc(-c3ncc4c(N5CC6CCC(C5)N6)nc(OCCN5CCC(CCC6CCN(c7ccc8c(c7)C(=O)N(C7CCC(=O)NC7=O)C8=O)CC6)CC5)nc4c3F)c12 (centres unmarked) [Compound 12] | 
12 | 0.25 to 1 | CCc1cccc2cc(O)cc(-c3ncc4c(N5CC6CCC(C5)N6)nc(OCCN5CCC(C(C)(C)N6CCN(c7ccc8c(c7)C(=O)N(C7CCC(=O)NC7=O)C8=O)CC6)CC5)nc4c3F)c12 (centres unmarked) [Compound 13] | 
13 | 0.25 to 1 | CCc1cccc2cc(O)cc(-c3ncc4c(N5CC6CCC(C5)N6)nc(OCCN5CCN(CC6CCN(c7ccc(OC)c(C(=O)NC8CCC(=O)NC8=O)c7)CC6)CC5)nc4c3F)c12 (centres unmarked) [Compound 15] | 
14 | > 1 | CCc1cccc2cc(O)cc(-c3ncc4c(N5CC6CCC(C5)N6)nc(OCCN5CCC(Cn6cccc(CN7CCC(=O)NC7=O)c6=O)CC5)nc4c3F)c12 [Compound 16] | 
15 | 0.25 to 1 | CCc1cccc2cc(O)cc(-c3ncc4c(N5CC6CCC(C5)N6)nc(OCCN5CCC6(CC5)CCN(c5ccc7c(c5)C(=O)N(C5CCC(=O)NC5=O)C7=O)CC6)nc4c3F)c12 (centres unmarked) [Compound 19] | 
16 | 0.1 to 5.25 | CCc1cccc2cc(O)cc(-c3ncc4c(N5CC6CCC(C5)N6)nc(OCCN5CCC(CN6CCN(CC7CCN(c8ccc9c(c8)C(=O)C(C8CCC(=O)NC8=O)C9=O)CC7)CC6)CC5)nc4c3F)c12 (centres unmarked) [Compound 20] | 
17 | 0.25 to 1 | CCc1cccc2cc(O)cc(-c3ncc4c(N5CC6CCC(C5)N6)nc(OCCN5CCOC(CN6CCN(CC7CCN(c8ccc9c(c8)C(=O)N(C8CCC(=O)NC8=O)C9=O)CC7)CC6)C5)nc4c3F)c12 (centres unmarked) [Compound 21] | 
18 | 0.1 to 5.25 | CCc1cccc2cc(O)cc(-c3ncc4c(N5CC6CCC(C5)N6)nc(OCCN5CCC(CN6CCC7(CC6)CCN(c6ccc8c(c6)C(=O)N(C6CCC(=O)NC6=O)C8=O)CC7)CC5)nc4c3F)c12 (centres unmarked) [Compound 22] | 
19 | 0.25 to 1 | CCc1cccc2cc(O)cc(-c3ncc4c(N5CC6CCC(C5)N6)nc(OCCN5CCC(O[C@H]6CC[C@H](OC7CCN(c8cccc9c8CN(C8CCC(=O)NC8=O)C9=O)CC7)CC6)CC5)nc4c3F)c12 (some centres unmarked) [Compound 23] | 
20 | 0.1 to 5.25 | CCc1cccc2cc(O)cc(-c3ncc4c(N5CC6CCC(C5)N6)nc(OCCN5CCC(O[C@H]6C[C@H](OC7CCN(c8cccc9c8CN(C8CCC(=O)NC8=O)C9=O)CC7)C6)CC5)nc4c3F)c12 (some centres unmarked) [Compound 24] | 
21 | < 5.1 | CCc1cccc2cc(O)cc(-c3ncc4c(N5CC6CCC(C5)N6)nc(OCCN5CCC6(CC5)CCN(CC5CCN(c7ccc8c(c7)C(=O)N(C7CCC(=O)NC7=O)C8=O)CC5)CC6)nc4c3F)c12 (centres unmarked) [Compound 25] | 
22 | 0.25 to 1 | CCc1cccc2cc(O)cc(-c3ncc4c(N5CC6CCC(C5)N6)nc(OCCN5CCC(COCC6CCN(c7ccc8c(c7)C(=O)N(C7CCC(=O)NC7=O)C8=O)CC6)CC5)nc4c3F)c12 (centres unmarked) [Compound 26] | 
23 | 0.25 to 1 | CCc1cccc2cc(O)cc(-c3ncc4c(N5CC6CCC(C5)N6)nc(OCCN5CCC(C6CCN(c7ccc8c(c7)C(=O)N(C7CCC(=O)NC7=O)C8=O)CC6)CC5)nc4c3F)c12 (centres unmarked) [Compound 27] | 
24 | 0.25 to 1 | CCc1cccc2cc(O)cc(-c3ncc4c(N5CC6CCC(C5)N6)nc(OCCN5CCC(CC6CCN(c7cccc8c7n(C)c(=O)n8C7CCC(=O)NC7=O)CC6)CC5)nc4c3F)c12 (centres unmarked) [Compound 28, 3-[4-[4-[[1-[2-[4-(3,8-diazabicyclo[3.2.1]octan-3-yl)-7-(8-ethyl-3-hydroxy-1-naphthyl)-8-fluoro-pyrido[4,3-d]pyrimidin-2-yl]oxyethyl]-4-piperidyl]methyl]-1-piperidyl]-3-methyl-2-oxo-benzimidazol-1-yl]piperidine-2,6-dione] | 
25 | 0.25 to 1 | CCc1cccc2cc(O)cc(-c3ncc4c(N5CC6CCC(C5)N6)nc(OCCN5CCC(F)(CC6CCN(c7cccc8c7CN(C7CCC(=O)NC7=O)C8=O)CC6)CC5)nc4c3F)c12 (centres unmarked) [Compound 29] | 
26 | > 1 | CCc1cccc2cc(O)cc(-c3nc(N4CC5CCC(C4)N5)c4cnc(OCCN5CCC(CC6CCN(c7cccc8c7CN(C7(C)CCC(=O)NC7=O)C8=O)CC6)CC5)nc4c3F)c12 (centres unmarked) [Compound 30] | 
27 | 0.1 to 5.25 | CCc1cccc2cc(O)cc(-c3ncc4c(N5CC6CCC(C5)N6)nc(OCCN5CCC(CCN6CCN(c7ccc8c(c7)C(=O)N(C7CCC(=O)NC7=O)C8=O)CC6)CC5)nc4c3F)c12 (centres unmarked) [Compound 31] | 

Row | SMILES | DC50 [µM] | Dmax [%]
28 | CCc1cccc2cc(O)cc(-c3ncc4c(N5CC6CCC(C5)N6)nc(OCCN5CCC(CN6CC7(CCN(c8ccc9c(c8)CN(C8CCC(=O)NC8=O)C9=O)CC7)C6)CC5)nc4c3F)c12 (centres unmarked) [Compound 2] | < 5.1 | > 70
29 | CCc1cccc2cc(O)cc(-c3ncc4c(N5CC6CCC(C5)N6)nc(OCCN5CCN(CC6CCN(c7ccc(N8CCC(=O)NC8=O)c(F)c7)CC6)CC5)nc4c3F)c12 [Compound 14] | 0.25 to 1 | ≤ 25
30 | CCc1cccc2cc(O)cc(-c3ncc4c(N5CC6CCC(C5)N6)nc(OCCN5CCN(CC6CCN(c7ccc(F)c(C(=O)NC8CCC(=O)NC8=O)c7)CC6)CC5)nc4c3F)c12 (centres unmarked) [Compound 17] | 0.25 to 1 | ≤ 25
31 | CCc1cccc2cc(O)cc(-c3ncc4c(N5CC6CCC(C5)N6)nc(OCCN5CCC(CN6CCC(Oc7cccc8c7C(=O)N(C7CCC(=O)NC7=O)C8=O)CC6)CC5)nc4c3F)c12 (centres unmarked) [Compound 18] | > 1 | ≤ 25
